In PubChem BioAssay AID2060622 (Molecular Pharmacology Branch, DTP, NCI, 2025):

Tested on: 242566-281-R-J2-PDC complex spheroid viability
Assay: Anticancer human tumor 242566-281-R-J2-PDC patient-derived pancreatic carcinoma cell line growth inhibition [CLK]
Conditions: for IC50: curve of first compound; for viability, T/C: stronger effect = lower value
How it was run: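 Patient-derived tumor cells grown as complex spheroids with HUVEC endothelial cells and mesenchymal stem cells, treated with drug combinations. Concentrations descend in half-log steps from near clinical Cmax, or from 10 microM if Cmax unknown.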

[1] = second compound 0.0316 µM, first compound 0.0316 µM
[2] = second compound 0.0316 µM, first compound 0.1 µM
[3] = second compound 0.0316 µM, first compound 0.316 µM
[4] = second compound 0.0316 µM, first compound 1 µM
[5] = second compound 0.0316 µM, first compound 3.16 µM
[6] = second compound 0.0316 µM, first compound 10 µM
[7] = second compound 0.1 µM, first compound 0.0316 µM
[8] = second compound 0.1 µM, first compound 0.1 µM
[9] = second compound 0.1 µM, first compound 0.316 µM
[10] = second compound 0.1 µM, first compound 1 µM
[11] = second compound 0.1 µM, first compound 3.16 µM
[12] = second compound 0.1 µM, first compound 10 µM
[13] = second compound 0.316 µM, first compound 0.0316 µM
[14] = second compound 0.316 µM, first compound 0.1 µM
[15] = second compound 0.316 µM, first compound 0.316 µM
[16] = second compound 0.316 µM, first compound 1 µM
[17] = second compound 0.316 µM, first compound 3.16 µM
[18] = second compound 0.316 µM, first compound 10 µM
[19] = second compound 1 µM, first compound 0.0316 µM
[20] = second compound 1 µM, first compound 0.1 µM
[21] = second compound 1 µM, first compound 0.316 µM
[22] = second compound 1 µM, first compound 1 µM
[23] = second compound 1 µM, first compound 3.16 µM
[24] = second compound 1 µM, first compound 10 µM
[25] = second compound 3.16 µM, first compound 0.0316 µM
[26] = second compound 3.16 µM, first compound 0.1 µM
[27] = second compound 3.16 µM, first compound 0.316 µM
[28] = second compound 3.16 µM, first compound 1 µM
[29] = second compound 3.16 µM, first compound 3.16 µM
[30] = second compound 3.16 µM, first compound 10 µM
[31] = second compound 10 µM, first compound 0.0316 µM
[32] = second compound 10 µM, first compound 0.1 µM
[33] = second compound 10 µM, first compound 0.316 µM
[34] = second compound 10 µM, first compound 1 µM
[35] = second compound 10 µM, first compound 3.16 µM
[36] = second compound 10 µM, first compound 10 µM
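Also: spheroids exposed to compounds for 7 days before readout.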
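For viability, T/C in this document: 100% = DMSO vehicle control wells.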

## O=c1[nH]cc(F)c(=O)[nH]1 + CN1CCN(c2cc(C(=O)Nc3cc4cc(-c5cnn(C)c5)ccc4cn3)ccn2)CC1
Second compound 0.0316 µM
  IC50: > 10000 nM
Second compound 0.1 µM
  IC50: 5960 nM
Second compound 0.316 µM
  IC50: < 31.6 nM
Second compound 1 µM
  IC50: < 31.6 nM
Second compound 3.16 µM
  IC50: < 31.6 nM
Second compound 10 µM
  IC50: < 31.6 nM
[1]
  viability, T/C: 109%
[2]
  viability, T/C: 101%
[3]
  viability, T/C: 103%
[4]
  viability, T/C: 77%
[5]
  viability, T/C: 61.4%
[6]
  viability, T/C: 56.1%
[7]
  viability, T/C: 97.8%
[8]
  viability, T/C: 81.2%
[9]
  viability, T/C: 81.7%
[10]
  viability, T/C: 69.8%
[11]
  viability, T/C: 54.8%
[12]
  viability, T/C: 44.9%
[13]
  viability, T/C: 38.5%
[14]
  viability, T/C: 35.3%
[15]
  viability, T/C: 30.8%
[16]
  viability, T/C: 25.4%
[17]
  viability, T/C: 24.9%
[18]
  viability, T/C: 18.9%
[19]
  viability, T/C: 4.56%
[20]
  viability, T/C: 4.75%
[21]
  viability, T/C: 3.93%
[22]
  viability, T/C: 4.22%
[23]
  viability, T/C: 3.79%
[24]
  viability, T/C: 3.85%
[25]
  viability, T/C: 7.11%
[26]
  viability, T/C: 6.79%
[27]
  viability, T/C: 6.18%
[28]
  viability, T/C: 6.26%
[29]
  viability, T/C: 5.72%
[30]
  viability, T/C: 5.29%
[31]
  viability, T/C: 1.55%
[32]
  viability, T/C: 1.68%
[33]
  viability, T/C: 1.19%
[34]
  viability, T/C: 1.49%
[35]
  viability, T/C: 1.43%
[36]
  viability, T/C: 1.2%

## CC(Nc1ccc2c(c1)OCCn1cc(N3C(=O)OCC3C(F)F)nc1-2)C(N)=O (centres undefined) + CN1CCN(c2cc(C(=O)Nc3cc4cc(-c5cnn(C)c5)ccc4cn3)ccn2)CC1
Second compound 0.0316 µM
  IC50: 829 nM
Second compound 0.1 µM
  IC50: 428 nM
Second compound 0.316 µM
  IC50: < 31.6 nM
Second compound 1 µM
  IC50: < 31.6 nM
Second compound 3.16 µM
  IC50: < 31.6 nM
Second compound 10 µM
  IC50: < 31.6 nM
[1]
  viability, T/C: 98.6%
[2]
  viability, T/C: 85.9%
[3]
  viability, T/C: 66.1%
[4]
  viability, T/C: 47.1%
[5]
  viability, T/C: 30.2%
[6]
  viability, T/C: 19.6%
[7]
  viability, T/C: 89.7%
[8]
  viability, T/C: 71.6%
[9]
  viability, T/C: 54.1%
[10]
  viability, T/C: 37.7%
[11]
  viability, T/C: 27.5%
[12]
  viability, T/C: 15.9%
[13]
  viability, T/C: 30.8%
[14]
  viability, T/C: 28.4%
[15]
  viability, T/C: 24%
[16]
  viability, T/C: 16.5%
[17]
  viability, T/C: 11.1%
[18]
  viability, T/C: 6.49%
[19]
  viability, T/C: 3.7%
[20]
  viability, T/C: 3.4%
[21]
  viability, T/C: 2.95%
[22]
  viability, T/C: 2.95%
[23]
  viability, T/C: 2.35%
[24]
  viability, T/C: 1.83%
[25]
  viability, T/C: 6.09%
[26]
  viability, T/C: 5.94%
[27]
  viability, T/C: 5.25%
[28]
  viability, T/C: 4.35%
[29]
  viability, T/C: 3.81%
[30]
  viability, T/C: 3.86%
[31]
  viability, T/C: 2.15%
[32]
  viability, T/C: 2.04%
[33]
  viability, T/C: 1.6%
[34]
  viability, T/C: 1.88%
[35]
  viability, T/C: 1.85%
[36]
  viability, T/C: 1.04%
